Measurements as given in patent publication US8450266B2 (Ipsen Pharma S.A.S., priority 2008, dated 2013).
Where a SMILES comes first, the peptide text is derived from it. [ ]: non-standard residue; d: D form. The star is where a group is joined. X2 = CCCCCCN1C(=O)CC(*)C1=O; Ac6c = NC1(C(=O)O)CCCCC1; X1 = CCCN1C(=O)CC(*)C1=O

Experiments:
[1] = Rat plasma half-life assay (LC-MS); format: in vitro ADME; conditions: incubated at 37° C., read-out: Rat Plasma T½ (converted)
Method in brief: (§1)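 Aliquots taken from human or rat plasma at time points up to 72 h, quenched with formic acid and acetonitrile, centrifuged. Supernatant analyzed by LC-MS (ESI, positive ion, full scan) on a C8 column with a water/acetonitrile 1% formic acid gradient.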

[2] = Human plasma half-life assay (LC-MS); format: in vitro ADME; conditions: incubated at 37° C., read-out: Human Plasma T½ (converted)
Method in brief: as §1

`CCCCCCN1C(=O)CC(SC[C@H](NC(=O)[C@H](CCCCN)NC(=O)[C@H](CCC(N)=O)NC(=O)[C@H](C)NC(=O)[C@H](CC(C)C)NC(=O)[C@H](CC(C)C)NC(=O)[C@H](Cc2c[nH]c3ccccc23)NC(=O)[C@H](CC(N)=O)NC(=O)[C@@H](NC(=O)[C@H](Cc2ccccc2)NC(=O)[C@H](CC(=O)O)NC(=O)[C@H](CCC(N)=O)NC(=O)[C@H](CCC(N)=O)NC(=O)[C@H](Cc2c[nH]cn2)NC(=O)[C@@H](NC(=O)[C@H](CCCCN)NC(=O)[C@H](CC(=O)O)NC(=O)[C@H](CCSC)NC(=O)[C@H](C)NC(=O)[C@@H](NC(=O)[C@H](CO)NC(=O)[C@H](Cc2ccc(O)cc2)NC(=O)[C@H](CC(=O)O)NC(=O)[C@H](CO)NC(=O)C2(N)CCCCC2)[C@@H](C)CC)[C@@H](C)CC)C(C)C)C(=O)N[C@@H](CCCCN)C(=O)N[C@@H](CCCCN)C(=O)N[C@@H](CC(N)=O)C(=O)N[C@@H](CC(=O)O)C(=O)N[C@@H](Cc2c[nH]c3ccccc23)C(=O)N[C@@H](CCCCN)C(=O)N[C@@H](Cc2c[nH]cn2)C(=O)N[C@@H](CC(N)=O)C(=O)N[C@H](C(=O)N[C@H](C(=O)N[C@@H](CCC(N)=O)C(=O)O)[C@@H](C)O)[C@@H](C)CC)C1=O` (some centres unmarked) [Example 23, [A6c^7, Cys(Hsu)^31]hGIP(7-42)-OH] (H-[Ac6c]SDYSIAMDKIHQQDFVNWLLAQKC(X2)KKNDWKHNITQ-OH) gave a half-life at 0.1 mg/mL [1] of 5.3 h and a half-life at 0.1 mg/mL [2] of 11.7 h.
Work on `CC[C@H](C)[C@H](NC(=O)[C@H](CO)NC(=O)[C@H](Cc1ccc(O)cc1)NC(=O)[C@H](CC(=O)O)NC(=O)[C@H](CO)NC(=O)C1(NC(C)=O)CCCCC1)C(=O)N[C@@H](C)C(=O)N[C@@H](CCSC)C(=O)N[C@@H](CC(=O)O)C(=O)N[C@@H](CCCCN)C(=O)N[C@H](C(=O)N[C@@H](Cc1c[nH]cn1)C(=O)N[C@@H](CCC(N)=O)C(=O)N[C@@H](CCC(N)=O)C(=O)N[C@@H](CC(=O)O)C(=O)N[C@@H](Cc1ccccc1)C(=O)N[C@H](C(=O)N[C@@H](CC(N)=O)C(=O)N[C@@H](Cc1c[nH]c2ccccc12)C(=O)N[C@@H](CC(C)C)C(=O)N[C@@H](CC(C)C)C(=O)N[C@@H](C)C(=O)N[C@@H](CCC(N)=O)C(=O)N[C@@H](CCCCN)C(=O)N[C@@H](Cc1ccc2ccccc2c1)C(=O)N[C@@H](CCCCN)C(=O)N[C@@H](CCCCN)C(=O)N[C@@H](CC(N)=O)C(=O)N[C@@H](CC(=O)O)C(=O)N[C@@H](Cc1c[nH]c2ccccc12)C(=O)N[C@@H](CCCCN)C(=O)N[C@@H](Cc1c[nH]cn1)C(=O)N[C@@H](CC(N)=O)C(=O)N[C@H](C(=O)N[C@H](C(=O)N[C@@H](CCC(N)=O)C(=O)O)[C@@H](C)O)[C@@H](C)CC)C(C)C)[C@@H](C)CC` [Example 24, (Ac-A6c^7, 2Nal^31)hGIP(7-42)-OH] (HELM PEPTIDE1{[ac].[O=C(C1(N[*:1])CCCCC1)[*:2]].S.D.Y.S.I.A.M.D.K.I.H.Q.Q.D.F.V.N.W.L.L.A.Q.K.[O=C([C@H](Cc1ccc2ccccc2c1)N[*:1])[*:2]].K.K.N.D.W.K.H.N.I.T.Q}$$$$V2.0) yielded a half-life at 0.1 mg/mL [1] of 12.2 h and a half-life at 0.1 mg/mL [2] of 26.3 h.
`CC[C@H](C)[C@H](NC(=O)[C@H](CO)NC(=O)[C@H](Cc1ccc(O)cc1)NC(=O)[C@H](CC(=O)O)NC(=O)[C@H](CO)NC(=O)C1(NC(C)=O)CCCCC1)C(=O)N[C@@H](C)C(=O)N[C@@H](CCSC)C(=O)N[C@@H](CC(=O)O)C(=O)N[C@@H](CCCCN)C(=O)N[C@H](C(=O)N[C@@H](Cc1c[nH]cn1)C(=O)N[C@@H](CCC(N)=O)C(=O)N[C@@H](CCC(N)=O)C(=O)N[C@@H](CC(=O)O)C(=O)N[C@@H](Cc1ccccc1)C(=O)N[C@H](C(=O)N[C@@H](CC(N)=O)C(=O)N[C@@H](Cc1c[nH]c2ccccc12)C(=O)N[C@@H](CC(C)C)C(=O)N[C@@H](CC(C)C)C(=O)N[C@@H](C)C(=O)N[C@@H](CCC(N)=O)C(=O)N[C@@H](CCCCN)C(=O)N[C@H](Cc1ccc2ccccc2c1)C(=O)N[C@@H](CCCCN)C(=O)N[C@@H](CCCCN)C(=O)N[C@@H](CC(N)=O)C(=O)N[C@@H](CC(=O)O)C(=O)N[C@@H](Cc1c[nH]c2ccccc12)C(=O)N[C@@H](CCCCN)C(=O)N[C@@H](Cc1c[nH]cn1)C(=O)N[C@@H](CC(N)=O)C(=O)N[C@H](C(=O)N[C@H](C(=O)N[C@@H](CCC(N)=O)C(=O)O)[C@@H](C)O)[C@@H](C)CC)C(C)C)[C@@H](C)CC` [Example 25, (Ac-A6c^7, D-2Nal^31)hGIP(7-42)-OH] (HELM PEPTIDE1{[ac].[O=C(C1(N[*:1])CCCCC1)[*:2]].S.D.Y.S.I.A.M.D.K.I.H.Q.Q.D.F.V.N.W.L.L.A.Q.K.[O=C([C@@H](Cc1ccc2ccccc2c1)N[*:1])[*:2]].K.K.N.D.W.K.H.N.I.T.Q}$$$$V2.0) showed a half-life at 0.1 mg/mL [1] of 13.7 h and a half-life at 0.1 mg/mL [2] of over 50 h.
With `CCCN1C(=O)CC(SC[C@H](NC(=O)[C@H](CCCCN)NC(=O)[C@H](CCC(N)=O)NC(=O)[C@H](C)NC(=O)[C@H](CC(C)C)NC(=O)[C@H](CC(C)C)NC(=O)[C@H](Cc2c[nH]c3ccccc23)NC(=O)[C@H](CC(N)=O)NC(=O)[C@@H](NC(=O)[C@H](Cc2ccccc2)NC(=O)[C@H](CC(=O)O)NC(=O)[C@H](CCC(N)=O)NC(=O)[C@H](CCC(N)=O)NC(=O)[C@H](Cc2c[nH]cn2)NC(=O)[C@@H](NC(=O)[C@H](CCCCN)NC(=O)[C@H](CC(=O)O)NC(=O)[C@H](CCSC)NC(=O)[C@H](C)NC(=O)[C@@H](NC(=O)[C@H](CO)NC(=O)[C@H](Cc2ccc(O)cc2)NC(=O)[C@H](CC(=O)O)NC(=O)[C@H](CO)NC(=O)C2(NC(C)=O)CCCCC2)[C@@H](C)CC)[C@@H](C)CC)C(C)C)C(=O)N[C@@H](CCCCN)C(=O)N[C@@H](CCCCN)C(=O)N[C@@H](CC(N)=O)C(N)=O)C1=O` (some centres unmarked) [Example 28, (Ac-A6c^7, Cys(Psu)^31]hGIP(7-34)-NH2] the half-life at 0.1 mg/mL [1] was 4.1 h and the half-life at 0.1 mg/mL [2] was 8.8 h.
For `CCCN1C(=O)CC(SC[C@H](NC(=O)[C@H](CCCCN)NC(=O)[C@H](CCC(N)=O)NC(=O)[C@H](C)NC(=O)[C@H](CC(C)C)NC(=O)[C@H](CC(C)C)NC(=O)[C@H](Cc2c[nH]c3ccccc23)NC(=O)[C@H](CC(N)=O)NC(=O)[C@@H](NC(=O)[C@H](Cc2ccccc2)NC(=O)[C@H](CC(=O)O)NC(=O)[C@H](CCC(N)=O)NC(=O)[C@H](CCC(N)=O)NC(=O)[C@H](Cc2c[nH]cn2)NC(=O)[C@@H](NC(=O)[C@H](CCCCN)NC(=O)[C@H](CC(=O)O)NC(=O)[C@H](CCSC)NC(=O)[C@H](C)NC(=O)[C@@H](NC(=O)[C@H](CO)NC(=O)[C@H](Cc2ccc(O)cc2)NC(=O)[C@H](CC(=O)O)NC(=O)[C@H](CO)NC(=O)C2(NC(C)=O)CCCCC2)[C@@H](C)CC)[C@@H](C)CC)C(C)C)C(N)=O)C1=O` (some centres unmarked) [Example 29, [Ac-A6c^7, Cys(Psu)^31]hGIP(7-31)-NH2], the half-life at 0.1 mg/mL [1] was 7 h and the half-life at 0.1 mg/mL [2] was 12.2 h.
`CCCN1C(=O)CC(SC[C@H](NC(=O)[C@H](CCCCN)NC(=O)[C@H](CCC(N)=O)NC(=O)[C@H](C)NC(=O)[C@H](CC(C)C)NC(=O)[C@H](CC(C)C)NC(=O)[C@H](Cc2c[nH]c3ccccc23)NC(=O)[C@H](CC(N)=O)NC(=O)[C@@H](NC(=O)[C@H](Cc2ccccc2)NC(=O)[C@H](CC(=O)O)NC(=O)[C@H](CCC(N)=O)NC(=O)[C@H](CCC(N)=O)NC(=O)[C@H](Cc2c[nH]cn2)NC(=O)[C@@H](NC(=O)[C@H](CCCCN)NC(=O)[C@H](CC(=O)O)NC(=O)[C@H](CCSC)NC(=O)[C@H](C)NC(=O)[C@@H](NC(=O)[C@H](CO)NC(=O)[C@H](Cc2ccc(O)cc2)NC(=O)[C@H](CC(=O)O)NC(=O)[C@H](CO)NC(=O)C2(NC(=O)[C@H](Cc3ccccc3)NC(C)=O)CCCCC2)[C@@H](C)CC)[C@@H](C)CC)C(C)C)C(=O)N[C@@H](CCCCN)C(=O)N[C@@H](CCCCN)C(=O)N[C@@H](CC(N)=O)C(=O)N[C@@H](CC(=O)O)C(=O)N[C@@H](Cc2c[nH]c3ccccc23)C(=O)N[C@@H](CCCCN)C(=O)N[C@@H](Cc2c[nH]cn2)C(=O)N[C@@H](CC(N)=O)C(=O)N[C@H](C(=O)N[C@H](C(=O)N[C@@H](CCC(N)=O)C(=O)O)[C@@H](C)O)[C@@H](C)CC)C1=O` (some centres unmarked) [Example 30, [Ac-Phe^6, A6c^7, Cys(Psu)^31]hGIP(6-42)-OH] (Ac-F[Ac6c]SDYSIAMDKIHQQDFVNWLLAQKC(X1)KKNDWKHNITQ-OH) showed a half-life at 0.1 mg/mL [1] of 7.6 h and a half-life at 0.1 mg/mL [2] of 7.2 h.
`CCCN1C(=O)CC(SC[C@H](NC(=O)[C@H](CCCCN)NC(=O)[C@H](CCC(N)=O)NC(=O)[C@H](C)NC(=O)[C@H](CC(C)C)NC(=O)[C@H](CC(C)C)NC(=O)[C@H](Cc2c[nH]c3ccccc23)NC(=O)[C@H](CC(N)=O)NC(=O)[C@@H](NC(=O)[C@H](Cc2ccccc2)NC(=O)[C@H](CC(=O)O)NC(=O)[C@H](CCC(N)=O)NC(=O)[C@H](CCC(N)=O)NC(=O)[C@H](Cc2c[nH]cn2)NC(=O)[C@@H](NC(=O)[C@H](CCCCN)NC(=O)[C@H](CC(=O)O)NC(=O)[C@H](CCSC)NC(=O)[C@H](C)NC(=O)[C@@H](NC(=O)[C@H](CO)NC(=O)[C@H](Cc2ccc(O)cc2)NC(=O)[C@H](CC(=O)O)NC(=O)[C@H](CO)NC(=O)C2(NC(=O)[C@@H](N)Cc3ccccc3)CCCCC2)[C@@H](C)CC)[C@@H](C)CC)C(C)C)C(=O)N[C@@H](CCCCN)C(=O)N[C@@H](CCCCN)C(=O)N[C@@H](CC(N)=O)C(=O)N[C@@H](CC(=O)O)C(=O)N[C@@H](Cc2c[nH]c3ccccc23)C(=O)N[C@@H](CCCCN)C(=O)N[C@@H](Cc2c[nH]cn2)C(=O)N[C@@H](CC(N)=O)C(=O)N[C@H](C(=O)N[C@H](C(=O)N[C@@H](CCC(N)=O)C(=O)O)[C@@H](C)O)[C@@H](C)CC)C1=O` (some centres unmarked) [Example 31, [A6c^7, Cys(Psu)^31]hGIP(6-42)-OH] (H-F[Ac6c]SDYSIAMDKIHQQDFVNWLLAQKC(X1)KKNDWKHNITQ-OH) gave a half-life at 0.1 mg/mL [1] of 5.1 h and a half-life at 0.1 mg/mL [2] of 4.4 h.
